Reference: BigSolDB 2.1

Cc1c(OCC(F)(F)F)ccnc1CS(=O)c1nc2ccccc2[nH]1 (stereo not drawn)
solubility (mole fraction)
Details	278.15 K	283.15 K	288.15 K	293.15 K	298.15 K	303.15 K	308.15 K	313.15 K	318.15 K
in acetone	0.0174	0.0197	0.0221	0.0256	0.0287	0.0337	0.0398	0.0461	0.053
in acetonitrile	0.00324	0.00406	0.00516	0.00642	0.00805	0.01	0.0124	0.015	0.0186
in ethanol	0.00976	0.0114	0.0145	0.0179	0.0221	0.0274	0.0327	0.0402	0.0487
in ethyl acetate	0.00415	0.00512	0.00637	0.00799	0.00962	0.0118	0.0145	0.0175	0.0216
in isobutanol	0.00434	0.00534	0.00657	0.00803	0.0098	0.012	0.0148	0.0179	0.0218
in isopropanol	0.00417	0.00469	0.00569	0.00708	0.00879	0.0109	0.0136	0.0168	0.0204
in methanol	0.022	0.0271	0.0331	0.0428	0.0532	0.0653	0.0803	0.101	0.125
in methyl acetate	0.00633	0.00729	0.00849	0.0105	0.0131	0.0158	0.02	0.0245	0.03
in n-butanol	0.00564	0.00701	0.00832	0.0105	0.0127	0.016	0.0196	0.0242	0.0296
in n-butyl acetate	0.00168	0.00206	0.00259	0.00329	0.00406	0.00505	0.0063	0.00785	0.00945
in n-propanol	0.00803	0.00912	0.0108	0.0132	0.0157	0.019	0.0233	0.028	0.0335
in n-propyl acetate	0.00227	0.00268	0.00342	0.00417	0.00522	0.00654	0.00831	0.0101	0.0127
